Assay results published in patent publication US12600721B2, “TYK2 inhibitors and uses thereof” (Sudo Biosciences Limited, priority 2021, dated 2026).

Tests used:
TYK2 Pseudokinase (JH2) [1] = test: HEK-Blue IL-23 reporter assay (SEAP) for profiling TYK2 pseudokinase (JH2) inhibition; format: cell-based; conditions: HEK-Blue IL-23 cells, 10 ng/mL human recombinant IL-23, SEAP reporter; read-out: IL23 IC50 (TYK2 inhibitory activity)
Method: (§1) HEK-Blue™ IL-23 and IFNα/β cells with a stably-integrated cytokine receptor and STAT3 or STAT1 express STAT-inducible secreted embryonic alkaline phosphatase (SEAP) reporter gene upon cytokine stimulation. These cells are plated in DMEM (Gibco) containing 10% heat-inactivated FBS (Gibco) and 100 U/mL PenStrep (Gibco) at 37° C. under 5% CO2 conditions for 20-22 hours. The cells are then pretreated with serially diluted test compounds for 60 min prior to stimulation with either 10 ng/mL human recombinant IL-23 (Miltenyl Biotech) or 1 ng/mL human recombinant IFNα (InvivoGen) for 22-24 hours for IL-23 or 16-18 h for IFNα. SEAP induction is measured using the QUANTI Blue™ Solution (InvivoGen) according to the manufacturer's instructions.

TYK2 Pseudokinase (JH2) [2] = test: HEK-Blue IFNα/β reporter assay (SEAP) for profiling TYK2 pseudokinase (JH2) inhibition; format: cell-based; conditions: HEK-Blue IFNα/β cells, 1 ng/mL human recombinant IFNα, read-out: IFNα IC50 (TYK2 inhibitory activity)
Method: as §1

TYK2-JH1 = biological target: T1, TYK2-JH1 (Homo sapiens, UniProt P29597); test: HTRF-based selectivity assay, TYK2 catalytic domain; format: biochemical; conditions: kinase domain (JH1), 20 μM ATP
T1 construct: using a recombinant purified His or GST-tagged catalytic domain for each enzyme; made in house
T1 sequence (P29597 897-1176 limits assumed): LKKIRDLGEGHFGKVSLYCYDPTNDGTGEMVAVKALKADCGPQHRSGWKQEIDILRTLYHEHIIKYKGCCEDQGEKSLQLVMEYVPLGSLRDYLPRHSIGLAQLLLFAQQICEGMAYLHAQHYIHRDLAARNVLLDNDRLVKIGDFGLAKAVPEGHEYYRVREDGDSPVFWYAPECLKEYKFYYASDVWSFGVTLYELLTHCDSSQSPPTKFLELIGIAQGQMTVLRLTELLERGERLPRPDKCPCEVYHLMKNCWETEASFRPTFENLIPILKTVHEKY
Method: (§2) The ability of compounds to inhibit the activity of JAK1, JAK2, JAK3 and TYK2 is measured using a recombinant purified His or GST-tagged catalytic domain for each enzyme (JAK1, JAK2 and TYK2 are generated in-house; JAK3 was purchased from Carna biosciences, Cat #08-046) in an HTRF format biochemical assay. The reactions employs a commercial peptide substrate from Cisbio (Cat #62TK0PEC). The basic assay protocol is as follows: first, 2.5 μL of diluted compounds (4×) in DMSO are dispensed into a 384-well Optiplate. Next, 2.5 μL of enzyme (final concentrations for enzymes are: TYK2-700 ng/mL, JAK1-80.6 ng/ml, JAK2-2.1 ng/ml and JAK3-171.8 ng/mL) is added and incubated at RT for 5-20 min. Finally, 5 μl of mixture of 2×ATP [Final concentration 20 μM for TYK2, 21.43 μM for JAK1, 14.7 μM for JAK2 and 2.12 μM for JAK3]+2× Substrate [Final concentration 217 nM for TYK2, 454.7 nM for JAK1, 200 nM for JAK2 and 257.4 nM for JAK3] is added to 384 well Optiplate. Composition of Kinase assay buffer used in the assay is as follows: HEPES 50 mM, EGTA 1 mM, MgCl2 10 mM, DTT 2 mM, Tween-20 0.01% and water. Then the plates are shaken and then incubated at 26.5° C. for 60 min.

JAK1-JH1 = biological target: T2, JAK1-JH1 (Homo sapiens, UniProt P23458); test: HTRF-based selectivity assay, JAK1 catalytic domain; format: biochemical; conditions: kinase domain (JH1), 21.43 μM ATP
T2 construct: using a recombinant purified His or GST-tagged catalytic domain for each enzyme; made in house
T2 sequence (P23458 875-1153 limits assumed): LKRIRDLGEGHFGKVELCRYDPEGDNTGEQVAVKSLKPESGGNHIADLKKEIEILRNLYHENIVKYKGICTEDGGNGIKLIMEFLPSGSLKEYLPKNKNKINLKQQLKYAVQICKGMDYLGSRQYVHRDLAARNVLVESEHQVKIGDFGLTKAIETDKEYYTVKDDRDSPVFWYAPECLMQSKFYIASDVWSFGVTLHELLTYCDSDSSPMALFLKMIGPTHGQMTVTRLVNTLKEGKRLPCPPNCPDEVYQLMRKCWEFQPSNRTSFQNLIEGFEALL
Method: as §2

JAK2-JH1 = biological target: T3, JAK2-JH1 (Homo sapiens, UniProt O60674); test: HTRF-based selectivity assay, JAK2 catalytic domain; format: biochemical; conditions: kinase domain (JH1), 14.7 μM ATP
T3 construct: using a recombinant purified His or GST-tagged catalytic domain for each enzyme; made in house
T3 sequence (O60674 849-1124 limits assumed): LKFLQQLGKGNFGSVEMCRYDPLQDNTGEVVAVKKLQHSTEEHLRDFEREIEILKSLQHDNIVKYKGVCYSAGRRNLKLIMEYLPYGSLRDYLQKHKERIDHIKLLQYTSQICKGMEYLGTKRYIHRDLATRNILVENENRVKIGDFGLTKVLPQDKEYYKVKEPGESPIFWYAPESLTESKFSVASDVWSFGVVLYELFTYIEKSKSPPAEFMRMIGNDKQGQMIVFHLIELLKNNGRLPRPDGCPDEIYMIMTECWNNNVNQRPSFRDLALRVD
Method: as §2

JAK3-JH1 = biological target: T4, JAK3-JH1 (Homo sapiens, UniProt P52333); test: HTRF-based selectivity assay, JAK3 catalytic domain; format: biochemical; conditions: kinase domain (JH1), 2.12 μM ATP
T4 construct: using a recombinant purified His or GST-tagged catalytic domain for each enzyme; purchased Carna biosciences 08-046
T4 sequence (P52333 822-1111 limits assumed): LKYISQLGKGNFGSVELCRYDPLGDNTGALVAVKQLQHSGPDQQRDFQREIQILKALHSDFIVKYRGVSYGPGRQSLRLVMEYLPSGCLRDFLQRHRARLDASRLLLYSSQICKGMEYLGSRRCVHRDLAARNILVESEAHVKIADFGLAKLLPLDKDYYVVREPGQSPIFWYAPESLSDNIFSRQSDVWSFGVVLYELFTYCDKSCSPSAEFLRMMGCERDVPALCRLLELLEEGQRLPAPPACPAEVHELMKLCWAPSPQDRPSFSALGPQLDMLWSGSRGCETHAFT
Method: as §2

[3] = tested on: HEK-Blue IL-2 reporter cells; test: HEK-Blue IL-2 reporter assay (SEAP) for determining selectivity; format: cell-based; conditions: HEK-Blue IL-2 cells, 4 ng/ml human recombinant IL-2, SEAP reporter
Method: (§3) HEK-Blue™ IL-2 and IFNγ reporter cells with a stably-integrated cytokine receptor and STAT5 or STAT1 express STAT-inducible secreted embryonic alkaline phosphatase (SEAP) reporter gene upon cytokine stimulation. These cells were plated in DMEM (Gibco) containing 10% heat-inactivated FBS (Gibco) and 100 U/mL PenStrep (Gibco) at 37° C. under 5% CO2 conditions for 20-22 hours. The cells were then pretreated with serially diluted test compounds for 60 min prior to stimulation with either 4 ng/ml human recombinant IL-2 (Miltenyl Biotech) or 50 ng/ml human recombinant IFNγ (InvivoGen) for 24 hours. SEAP induction was measured using the QUANTI-Blue™ Solution (InvivoGen) according to the manufacturer's instructions.

[4] = tested on: HEK-Blue IFNγ reporter cells; test: HEK-Blue IFNγ reporter assay (SEAP) for determining selectivity; format: cell-based; conditions: 50 ng/ml human recombinant IFNγ, read-out: IFN-γ IC50 (SEAP selectivity)
Method: as §3

Row | IC50 (TYK2 Pseudokinase (JH2) [1]) [µM] | IC50 (TYK2 Pseudokinase (JH2) [2]) [µM] | IC50 (TYK2-JH1) [µM] | IC50 (JAK1-JH1) [µM] | IC50 (JAK2-JH1) [µM] | IC50 (JAK3-JH1) [µM] | SMILES | IC50 [3] [µM] | IC50 [4] [µM]
1 | < 0.03 | < 0.03 | > 1 | > 1 | > 1 | > 1 | [2H]C([2H])([2H])NC(=O)c1cnc(NC(=O)C2CC2)cc1Nc1cccc2c1N(C)Cc1nccnc1-2 [Compound 8, 6-(cyclopropanecarboxamido)-N-(methyl-d3)-4-((6-methyl-5,6-dihydropyrazino[2,3-c]quinolin-7-yl)amino)nicotinamide] | > 1 | 0.03 to 0.3
2 | < 0.03 | < 0.03 | > 1 | > 1 | > 1 | > 1 | [2H]C([2H])([2H])NC(=O)c1nnc(NC(=O)C2CC2)cc1Nc1cccc2c1N(C)Cc1nccnc1-2 [Compound 16, 6-(cyclopropanecarboxamido)-N-(methyl-d3)-4-((6-methyl-5,6-dihydropyrazino[2,3-c]quinolin-7-yl)amino)pyridazine-3-carboxamide] | > 1 | 0.03 to 0.3
3 | < 0.03 | < 0.03 | > 1 | > 1 | > 1 | > 1 | [2H]C([2H])([2H])NC(=O)c1cnc(NC(=O)C2CC2)cc1Nc1cccc2c1N(C([2H])([2H])[2H])Cc1nccnc1-2 [Compound 17, 6-(cyclopropanecarboxamido)-N-(methyl-d3)-4-((6-(methyl-d3)-5,6-dihydropyrazino[2,3-c]quinolin-7-yl)amino)nicotinamide] | > 1 | 0.03 to 0.3

Second part, the compound before the results:

Row | SMILES | IC50 (TYK2 Pseudokinase (JH2) [1]) [µM] | IC50 (TYK2 Pseudokinase (JH2) [2]) [µM] | IC50 (TYK2-JH1) [µM] | IC50 (JAK1-JH1) [µM] | IC50 (JAK2-JH1) [µM] | IC50 (JAK3-JH1) [µM] | IC50 [3] [µM] | IC50 [4] [µM]
4 | [2H]C([2H])([2H])NC(=O)c1cnc(NC(=O)C2CC2)cc1Nc1cccc2c1N(C)Cc1cc(F)cnc1-2 [Compound 5, 6-(cyclopropanecarboxamido)-4-((3-fluoro-6-methyl-5,6-dihydrobenzo[h][1,6]naphthyridin-7-yl)amino)-N-(methyl-d3)nicotinamide] | < 0.03 | < 0.03 | > 1 | > 1 | > 1 | > 1 | > 1 | > 1
5 | [2H]C([2H])([2H])NC(=O)c1nnc(NC(=O)C2CC2)cc1Nc1cccc2c1N(C)Cc1cncnc1-2 [Compound 6, 6-(cyclopropanecarboxamido)-N-(methyl-d3)-4-((6-methyl-5,6-dihydropyrimido[5,4-c]quinolin-7-yl)amino)pyridazine-3-carboxamide] | < 0.03 | < 0.03 | > 1 | 0.3 to 1 | > 1 | > 1 | > 1 | 0.03 to 0.3
6 | [2H]C([2H])([2H])NC(=O)c1nnc(NC(=O)C2CC2)cc1Nc1cccc2c1N(C)Cc1cc(F)cnc1-2 [Compound 7, 6-(cyclopropanecarboxamido)-4-((3-fluoro-6-methyl-5,6-dihydrobenzo[h][1,6]naphthyridin-7-yl)amino)-N-(methyl-d3)pyridazine-3-carboxamide] | < 0.03 | 0.03 to 0.3 | > 1 | > 1 | > 1 | > 1 | 0.3 to 1 | 0.03 to 0.3
7 | [2H]C([2H])([2H])NC(=O)c1nnc(NC(=O)C2CC2)cc1Nc1cccc2c1N(C([2H])([2H])[2H])Cc1nccnc1-2 [Compound 18, 6-(cyclopropanecarboxamido)-N-(methyl-d3)-4-((6-(methyl-d3)-5,6-dihydropyrazino[2,3-c]quinolin-7-yl)amino)pyridazine-3-carboxamide] | < 0.03 | < 0.03 | > 1 | > 1 | > 1 | > 1 | 0.3 to 1 | 0.03 to 0.3
8 | [2H]C([2H])([2H])NC(=O)c1nnc(NC(=O)C2CC2)cc1Nc1cccc2c1N(C)Cc1cnn(C)c(=O)c1-2 [Compound 27, 6-(cyclopropanecarboxamido)-4-((2,6-dimethyl-1-oxo-1,2,5,6-tetrahydropyridazino[4,5-c]quinolin-7-yl)amino)-N-(methyl-d3)pyridazine-3-carboxamide] | < 0.03 | < 0.03 | > 1 | > 1 | > 1 | > 1 | 0.3 to 1 | 0.03 to 0.3
9 | [2H]C([2H])([2H])NC(=O)c1cnc(NC(=O)C2CC2)cc1Nc1cccc2c1N(C)Cc1cnn(C)c(=O)c1-2 [Compound 28, 6-(cyclopropanecarboxamido)-4-((2,6-dimethyl-1-oxo-1,2,5,6-tetrahydropyridazino[4,5-c]quinolin-7-yl)amino)-N-(methyl-d3)nicotinamide] | < 0.03 | < 0.03 | > 1 | > 1 | > 1 | > 1 | > 1 | 0.03 to 0.3
